Legend:
Human D2RL [1] = molecular target: T1, Human D2RL (Homo sapiens, UniProt P14416); test: β-arrestin2 recruitment BRET assay; assay type: cell-based; settings: dose-dependent; maximally effective concentrations (10–100 µM)
PO4-null D2R = PO4-null D2R (Rattus norvegicus, UniProt P61169); test: β-arrestin2 recruitment BRET assay, PO4-null D2R; assay type: cell-based; settings: dose-dependent (Figure 4D)
other GRK isoforms = settings: selectively inhibits the GRK2/3 subfamily; cited from earlier work
D2R–GRK2 interactions = tested on: D2R–GRK2 interactions; design: method as in Pack et al., 2018 [21]; settings: similar BRET assay; ref Pack et al., 2018 [21]; cited from earlier work
Human D2RL [2] = molecular target: T1, Human D2RL; test: LYN BRET receptor internalization assay; assay type: cell-based; design: expressed in transfected cells; host or cells: HEK293 (parental or GRK knockout lines); settings: dose-dependent; maximally effective concentration of 100 µM
Experimental: HEK293 cells were transiently transfected with the indicated D2R-Rluc8 (35 mm plate: 0.1 μg; 100 mm plate: 0.5 μg) and LYN-rGFP (35 mm plate: 1 μg; 100 mm plate: 5 μg) constructs and the indicated GRK construct (35 mm plate: 1 μg; 100 mm plate: 5 μg) or pcDNA control.

Human D2RL [3] = molecular target: T1, Human D2RL; test: GRK2-GFP recruitment BRET assay (D2R–GRK2 interactions); assay type: cell-based; design: expressed in transfected cells; host or cells: HEK293 (parental or GRK knockout lines); settings: dose-dependent (Figure 3C)
Human D2RL [4] = molecular target: T1, Human D2RL; test: Go heterotrimer activation BRET assay; assay type: cell-based; design: expressed in transfected cells; host or cells: HEK293 (parental or GRK knockout lines); settings: Cmpd101 treatment of HEK293 cells
Experimental: HEK293 cells were transiently transfected with the Gαo1-Rluc8 (35 mm plate: 0.1 μg; 100 mm plate: 0.5 μg), Gβ1 (35 mm plate: 0.9 μg; 100 mm plate: 4.5 μg), and Gγ2-mVenus (35 mm plate: 1 μg; 100 mm plate: 5 μg) constructs and the indicated untagged D2R construct (35 mm plate: 1 μg; 100 mm plate: 5 μg). […] Cells were then plated in 96-well white solid bottom plates (Greiner, Monroe, NC, USA) and incubated at room temperature for 45 min.

[5] = molecular target: phosphorylation-null (PO4-null) rat D2 dopamine receptor, long isoform, fused to Rluc8 (rat) (UniProt P61169); test: FRET or BRET; GRK2 recruitment BRET in live HEK293 cells transfected with D2R-Rluc8 (donor) and GRK2-rGFP (acceptor), with or without compound 101; DPBS with 200 µM sodium metabisulphite, room temperature, 2 µM Prolume Purple; dopamine for 5 min
[6] = molecular target: phosphorylation-null (PO4-null) rat D2 dopamine receptor, long isoform, fused to Rluc8 (rat) (UniProt P61169)

T1 sequence (P14416 whole entry): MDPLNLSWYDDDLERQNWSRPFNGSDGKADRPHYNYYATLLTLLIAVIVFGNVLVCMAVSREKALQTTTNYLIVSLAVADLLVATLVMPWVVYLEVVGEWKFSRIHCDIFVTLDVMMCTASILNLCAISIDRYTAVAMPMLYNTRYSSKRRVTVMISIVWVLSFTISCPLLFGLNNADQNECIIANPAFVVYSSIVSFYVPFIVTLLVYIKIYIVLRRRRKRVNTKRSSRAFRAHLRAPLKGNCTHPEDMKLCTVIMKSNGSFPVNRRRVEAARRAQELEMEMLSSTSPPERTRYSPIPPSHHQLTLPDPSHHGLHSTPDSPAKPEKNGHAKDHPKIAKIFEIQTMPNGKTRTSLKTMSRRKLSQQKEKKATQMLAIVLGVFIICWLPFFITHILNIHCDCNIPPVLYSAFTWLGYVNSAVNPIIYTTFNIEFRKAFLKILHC
phosphorylation-null (PO4-null) rat D2 dopamine receptor, long isoform, fused to Rluc8 (rat), sequence (P61169 whole entry, the tested form may be a part, canonical isoform): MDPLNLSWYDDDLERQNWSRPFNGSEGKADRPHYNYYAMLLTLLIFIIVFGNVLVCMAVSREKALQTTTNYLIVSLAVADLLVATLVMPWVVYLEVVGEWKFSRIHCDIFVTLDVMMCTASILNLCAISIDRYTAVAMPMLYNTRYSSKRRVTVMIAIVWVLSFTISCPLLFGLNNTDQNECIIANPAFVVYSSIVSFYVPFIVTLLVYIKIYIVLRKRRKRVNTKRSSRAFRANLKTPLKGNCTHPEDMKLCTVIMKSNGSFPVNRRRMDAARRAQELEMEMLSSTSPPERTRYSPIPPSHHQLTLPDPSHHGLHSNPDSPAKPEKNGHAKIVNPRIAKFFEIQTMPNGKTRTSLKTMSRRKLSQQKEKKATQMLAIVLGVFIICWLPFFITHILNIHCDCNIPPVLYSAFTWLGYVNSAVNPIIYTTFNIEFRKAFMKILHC
PO4-null D2R, sequence (P61169 whole entry, canonical isoform): as the sequence (P61169 whole entry, the tested form may be a part, canonical isoform) above
GRK2-rGFP, sequence (P25098 whole entry): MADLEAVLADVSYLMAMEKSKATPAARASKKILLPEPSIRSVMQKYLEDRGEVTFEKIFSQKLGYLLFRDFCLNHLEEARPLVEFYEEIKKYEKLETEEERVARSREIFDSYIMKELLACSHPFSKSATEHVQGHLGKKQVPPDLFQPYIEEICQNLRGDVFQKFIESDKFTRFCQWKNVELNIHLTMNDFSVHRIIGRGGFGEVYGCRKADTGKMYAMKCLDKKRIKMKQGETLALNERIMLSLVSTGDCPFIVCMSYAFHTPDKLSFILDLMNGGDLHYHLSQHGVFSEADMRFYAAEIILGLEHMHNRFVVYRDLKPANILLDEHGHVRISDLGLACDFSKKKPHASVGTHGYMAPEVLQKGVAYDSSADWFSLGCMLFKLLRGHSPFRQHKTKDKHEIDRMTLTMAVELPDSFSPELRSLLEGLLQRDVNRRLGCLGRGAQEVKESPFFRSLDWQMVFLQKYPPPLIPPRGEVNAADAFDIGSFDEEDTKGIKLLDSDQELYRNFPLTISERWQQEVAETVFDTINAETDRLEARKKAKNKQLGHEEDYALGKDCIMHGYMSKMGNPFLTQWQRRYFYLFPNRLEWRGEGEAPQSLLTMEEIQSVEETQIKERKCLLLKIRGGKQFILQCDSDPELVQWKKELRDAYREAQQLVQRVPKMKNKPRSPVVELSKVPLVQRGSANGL
β-arrestin2-mVenus, sequence (P32121 whole entry): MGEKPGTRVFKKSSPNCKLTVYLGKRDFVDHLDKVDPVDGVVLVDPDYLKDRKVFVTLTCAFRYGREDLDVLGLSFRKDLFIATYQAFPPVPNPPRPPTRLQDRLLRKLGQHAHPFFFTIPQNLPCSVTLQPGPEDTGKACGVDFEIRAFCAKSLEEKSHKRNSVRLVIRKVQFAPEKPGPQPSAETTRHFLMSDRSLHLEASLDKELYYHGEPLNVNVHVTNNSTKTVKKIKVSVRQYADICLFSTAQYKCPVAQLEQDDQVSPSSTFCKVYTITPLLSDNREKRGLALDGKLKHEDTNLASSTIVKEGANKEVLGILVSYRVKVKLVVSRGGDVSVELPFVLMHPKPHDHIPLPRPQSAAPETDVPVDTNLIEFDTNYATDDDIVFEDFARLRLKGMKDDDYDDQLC

In the case of `Cn1c(CNc2cccc(C(=O)NCc3ccccc3C(F)(F)F)c2)nnc1-c1ccncc1` [Cmpd101], the “inhibition of dopamine-stimulated β-arrestin2 recruitment to the D2R” value (Human D2RL [1]) is given as “unable to completely inhibit”, the “decrease of β-arrestin2 recruitment to the phospho-null D2R” value (PO4-null D2R) is given as “did not completely eliminate” and the “affinity for other GRK isoforms” value (other GRK isoforms) is given as “lacks affinity”. The “effect on D2R–GRK2 interactions” value (D2R–GRK2 interactions) was “no effect”, the “inhibition of dopamine-stimulated D2R internalization” value (Human D2RL [2]) was “completely block” and the “inhibition of GRK2–D2R interactions” value (Human D2RL [3]) was “unable to completely block”. The “effect on D2R signaling through G proteins (Go activation BRET assay)” value (Human D2RL [4]) was “does not alter”.

With “GRK2-rGFP (from UniProt P25098 1-689) (enzyme)” the Emax of dopamine-stimulated BRET (% of WT D2R) [5] was 102 % of WT D2R.

With “β-arrestin2-mVenus (from UniProt P32121 1-409) (natural protein)” the dopamine-stimulated D2R internalization in HEK293 cells (LYN BRET), Emax as a percentage of WT D2R (β-arrestin not transfected in this assay) [6] was 100 % of WT D2R.

From article PMC10605370 (Biomolecules, 2023)
